Data: PubChem BioAssay (NCI)
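Step 1: Grow cells in 96-well plates. Step 2: Expose to compound for 48 hours at 5 concentrations. Step 3: Interpolate endpoints linearly; if unreached, use highest concentration. Definition used: TGI = concentration required for complete inhibition of growth.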

Experiments:
Assay in all cases: NCI tumour cell line growth inhibition, 48 h
786-0 renal = tested on: 786-0 renal
A498 renal = tested on: A498 renal
ACHN renal = tested on: ACHN renal
BT-549 breast = tested on: BT-549 breast
CAKI-1 renal = tested on: CAKI-1 renal
CCRF-CEM leukemia = tested on: CCRF-CEM leukemia
COLO 205 colon = tested on: COLO 205 colon
DU-145 prostate = tested on: DU-145 prostate
EKVX NSCLC = tested on: EKVX NSCLC
HCC-2998 colon = tested on: HCC-2998 colon
HCT-116 colon = tested on: HCT-116 colon
HCT-15 colon = tested on: HCT-15 colon
HL-60(TB) leukemia = tested on: HL-60(TB) leukemia
HOP-62 NSCLC = tested on: HOP-62 NSCLC
HOP-92 NSCLC = tested on: HOP-92 NSCLC
HS 578T breast = tested on: HS 578T breast
HT29 colon = tested on: HT29 colon
IGROV1 ovarian = tested on: IGROV1 ovarian
K-562 leukemia = tested on: K-562 leukemia
KM12 colon = tested on: KM12 colon
LOX IMVI melanoma = tested on: LOX IMVI melanoma
M14 melanoma = tested on: M14 melanoma
MCF7 breast = tested on: MCF7 breast
MDA-MB-231 breast = tested on: MDA-MB-231 breast
MDA-MB-435 = tested on: MDA-MB-435
MDA-N = tested on: MDA-N
MOLT-4 leukemia = tested on: MOLT-4 leukemia
NCI-H226 lung = tested on: NCI-H226 lung
NCI-H23 lung = tested on: NCI-H23 lung
NCI-H460 lung = tested on: NCI-H460 lung
NCI-H522 lung = tested on: NCI-H522 lung
NCI/ADR-RES ovarian = tested on: NCI/ADR-RES ovarian
OVCAR-3 ovarian = tested on: OVCAR-3 ovarian
OVCAR-4 ovarian = tested on: OVCAR-4 ovarian
OVCAR-5 ovarian = tested on: OVCAR-5 ovarian
OVCAR-8 ovarian = tested on: OVCAR-8 ovarian
PC-3 prostate = tested on: PC-3 prostate
RPMI-8226 leukemia = tested on: RPMI-8226 leukemia
RXF 393 renal = tested on: RXF 393 renal
SF-268 CNS = tested on: SF-268 CNS
SF-295 CNS = tested on: SF-295 CNS
SF-539 CNS = tested on: SF-539 CNS
SK-MEL-2 melanoma = tested on: SK-MEL-2 melanoma
SK-MEL-28 melanoma = tested on: SK-MEL-28 melanoma
SK-MEL-5 melanoma = tested on: SK-MEL-5 melanoma
SN12C renal = tested on: SN12C renal
SNB-75 CNS = tested on: SNB-75 CNS
SR leukemia = tested on: SR leukemia
SW-620 colon = tested on: SW-620 colon
T-47D breast = tested on: T-47D breast
TK-10 renal = tested on: TK-10 renal
U251 CNS = tested on: U251 CNS
UACC-257 melanoma = tested on: UACC-257 melanoma
UACC-62 melanoma = tested on: UACC-62 melanoma
UO-31 renal = tested on: UO-31 renal

`CCCCCCCCCCCCCCCCC(=O)NCC(=O)NCC(=O)NC(Cc1ccccc1)C(=O)Oc1ccc([N+](=O)[O-])cc1` (stereo not given) was tested, and the TGI (786-0 renal) was 72.9 µM, the TGI (A498 renal) was > 100 µM and the TGI (ACHN renal) was > 100 µM. For the same compound, the TGI (BT-549 breast) was 34.2 µM, the TGI (CAKI-1 renal) was 32.2 µM and the TGI (CCRF-CEM leukemia) was 44.9 µM. The TGI (COLO 205 colon) was 35.8 µM, the TGI (DU-145 prostate) was > 100 µM and the TGI (EKVX NSCLC) was > 100 µM. It also gave a TGI (HCC-2998 colon) of 37.3 µM, a TGI (HCT-116 colon) of 32.6 µM and a TGI (HCT-15 colon) of 34.5 µM. The TGI (HL-60(TB) leukemia) was > 100 µM, the TGI (HOP-62 NSCLC) was > 100 µM and the TGI (HOP-92 NSCLC) was > 100 µM. For the same compound, the TGI (HS 578T breast) was > 100 µM, the TGI (HT29 colon) was 88 µM and the TGI (IGROV1 ovarian) was > 100 µM. The TGI (K-562 leukemia) was 56.6 µM, the TGI (KM12 colon) was 48.8 µM and the TGI (LOX IMVI melanoma) was 38.7 µM. The TGI (M14 melanoma) was 41.1 µM, the TGI (MCF7 breast) was > 100 µM and the TGI (MDA-MB-231 breast) was 38.9 µM. For the same compound, the TGI (MDA-MB-435) was > 100 µM, the TGI (MDA-N) was > 100 µM and the TGI (MOLT-4 leukemia) was 38.7 µM. For the same compound, the TGI (NCI-H226 lung) was 70 µM, the TGI (NCI-H23 lung) was > 100 µM and the TGI (NCI-H460 lung) was 38.6 µM. For the same compound, the TGI (NCI-H522 lung) was 55.2 µM, the TGI (NCI/ADR-RES ovarian) was 42.9 µM and the TGI (OVCAR-3 ovarian) was > 100 µM. The TGI (OVCAR-4 ovarian) was > 100 µM, the TGI (OVCAR-5 ovarian) was 57.7 µM and the TGI (OVCAR-8 ovarian) was 38.7 µM. It also gave a TGI (PC-3 prostate) of 86.6 µM, a TGI (RPMI-8226 leukemia) of 58.2 µM and a TGI (RXF 393 renal) of 46.6 µM. For the same compound, the TGI (SF-268 CNS) was 50.4 µM, the TGI (SF-295 CNS) was 40.4 µM and the TGI (SF-539 CNS) was 46.8 µM. The TGI (SK-MEL-2 melanoma) was > 100 µM, the TGI (SK-MEL-28 melanoma) was 30.3 µM and the TGI (SK-MEL-5 melanoma) was 47.4 µM. The TGI (SN12C renal) was 34.6 µM, the TGI (SNB-75 CNS) was > 100 µM and the TGI (SR leukemia) was 51.3 µM. For the same compound, the TGI (SW-620 colon) was 37.2 µM, the TGI (T-47D breast) was > 100 µM and the TGI (TK-10 renal) was > 100 µM. For the same compound, the TGI (U251 CNS) was 43.3 µM, the TGI (UACC-257 melanoma) was 57.4 µM and the TGI (UACC-62 melanoma) was 40.5 µM. For the same compound, the TGI (UO-31 renal) was > 100 µM.
